Tests used:
[1] = tested on: SMN2 minigene mRNA (SMN2-A minigene) in HEK293H cells; assay: SMN2 minigene mRNA splicing RT-qPCR assay in cultured cells; format: cell-based, human; details: Homo sapiens, HEK293-H; concentration increasing full length SMN2 mRNA 1.5-fold relative to vehicle-treated cells; HEK293H cells with SMN2-A minigene, 24 hours, 7-point concentration data; read-out: EC1.5x for production of full length SMN2 mRNA
Procedure, shortened: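 Cells are seeded, left to attach 4-6 h, then dosed with test compound across seven concentrations and incubated 24 h. Lysates undergo RT-qPCR with primers/probe specific to the exon 7-containing minigene transcript, co-amplified with GAPDH. Fold change over vehicle is calculated, and EC1.5× marks the 1.5-fold point.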

[2] = tested on: Smn protein in SMA patient fibroblast cells (GM03813); assay: Smn protein assay in cultured cells (SMN HTRF); format: cell-based, human; details: SMA patient fibroblast cells, 48 hours; for EC1.5x for Smn protein expression: 7-point concentration curve, SMN HTRF, concentration producing 1.5 times Smn protein vs DMSO vehicle control; for maximum fold (Fold) increase of Smn protein: 7-point concentration data, fold relative to vehicle control
Procedure, shortened: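 Patient-derived SMA fibroblasts are plated, given compound for 48 h, then lysed in RIPA buffer with protease inhibitors. Lysate Smn is detected by an anti-SMN d2/kryptate HTRF pair incubated overnight. The normalized ΔF is divided by the vehicle ΔF to give fold change, from which EC1.5× and maximum fold are taken.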

Compound	EC (1.5-fold increase) [1] [µM]	EC1.5x for Smn protein expression [2]	maximum fold (Fold) increase of Smn protein [2]	melting point [°C]
O=c1cc(-c2cc(F)cc(F)c2)nc2ccc(N3CCNCC3)cn12 [Compound 79, 2-(3,5-difluorophenyl)-7-(piperazin-1-yl)-4H-pyrido[1,2-a]pyrimidin-4-one]	0.1 to 0.3	*** (an EC1.5× between >0.3 μM and ≤1 μM is indicated by three stars (***))	**** (a fold increase between >1.5 and ≤1.65 is indicated by four stars (****))	195 to 198
O=c1cc(-c2cccc(OC(F)(F)F)c2)nc2ccc(N3CCNCC3)cn12 [Compound 80, 7-(piperazin-1-yl)-2-[3-(trifluoromethoxy)phenyl]-4H-pyrido[1,2-a]pyrimidin-4-one]	1 to 3		* (A maximum fold increase of ≤1.2 is indicated by one star (*))	140 to 143
COc1ccc(-c2cc(=O)n3cc(N4CCN[C@@H](C)C4)ccc3n2)cc1OC(F)(F)F [Compound 83, 2-[4-methoxy-3-(trifluoromethoxy)phenyl]-7-[(3S)-3-methylpiperazin-1-yl]-4H-pyrido[1,2-a]pyrimidin-4-one]	0.3 to 1		* (A maximum fold increase of ≤1.2 is indicated by one star (*))	176 to 178
C[C@H]1CN(c2ccc3nc(-c4ccc(O)c(OC(F)(F)F)c4)cc(=O)n3c2)CCN1 [Compound 84, 2-[4-hydroxy-3-(trifluoromethoxy)phenyl]-7-[(3S)-3-methylpiperazin-1-yl]-4H-pyrido[1,2-a]pyrimidin-4-one]	1 to 3	** (an EC1.5× between >1 μM and ≤3 μM is indicated by two stars (**))	***** (a fold increase >1.65 is indicated by five stars (*****))	152 to 155
COc1ccc(-c2cc(=O)n3cc(N4CCN[C@H](C)C4)ccc3n2)cc1F [Compound 86, 2-(3-fluoro-4-methoxyphenyl)-7-[(3R)-3-methylpiperazin-1-yl]-4H-pyrido[1,2-a]pyrimidin-4-one]	0.1 to 0.3	**** (an EC1.5x≤0.3 μM is indicated by four stars (****))	**** (a fold increase between >1.5 and ≤1.65 is indicated by four stars (****))	175 to 178
COc1ccc(-c2cc(=O)n3cc(N4CCN[C@@H](C)C4)ccc3n2)cc1F [Compound 87, 2-(3-fluoro-4-methoxyphenyl)-7-[(3S)-3-methylpiperazin-1-yl]-4H-pyrido[1,2-a]pyrimidin-4-one]	0.1 to 0.3	*** (an EC1.5× between >0.3 μM and ≤1 μM is indicated by three stars (***))	**** (a fold increase between >1.5 and ≤1.65 is indicated by four stars (****))	175 to 178
COc1ccc(-c2cc(=O)n3cc(N4CCNCC4)ccc3n2)cn1 [Compound 88, 2-(6-methoxypyridin-3-yl)-7-(piperazin-1-yl)-4H-pyrido[1,2-a]pyrimidin-4-one]	1 to 3		** (a fold increase between >1.2 and ≤1.35 is indicated by two stars (**))	173 to 178
COc1ccc(-c2cc(=O)n3cc(N4CCNCC4)ccc3n2)c(OC)c1 [Compound 89, 2-(2,4-dimethoxyphenyl)-7-(piperazin-1-yl)-4H-pyrido[1,2-a]pyrimidin-4-one]	1 to 3		*** (a fold increase between >1.35 and ≤1.5 is indicated by three stars (***))	171 to 173
COc1ccc(-c2cc(=O)n3cc(N4CCN[C@@H](C)C4)ccc3n2)c(OC)c1 [Compound 90, 2-(2,4-dimethoxyphenyl)-7-[(3S)-3-methylpiperazin-1-yl]-4H-pyrido[1,2-a]pyrimidin-4-one]	1 to 3	* (An EC1.5× for Smn protein expression between >3 μM and ≤10 μM is indicated by one star (*))	*** (a fold increase between >1.35 and ≤1.5 is indicated by three stars (***))	172 to 177
C[C@H]1CN(c2ccc3nc(-c4cncc(F)c4)cc(=O)n3c2)CCN1 [Compound 93, 2-(5-fluoropyridin-3-yl)-7-[(3S)-3-methylpiperazin-1-yl]-4H-pyrido[1,2-a]pyrimidin-4-one]	1 to 3		** (a fold increase between >1.2 and ≤1.35 is indicated by two stars (**))	191 to 199
O=c1cc(-c2cncc(Cl)c2)nc2ccc(N3CCNCC3)cn12 [Compound 94, 2-(5-chloropyridin-3-yl)-7-(piperazin-1-yl)-4H-pyrido[1,2-a]pyrimidin-4-one]	1 to 3		*** (a fold increase between >1.35 and ≤1.5 is indicated by three stars (***))	208 to 218
C[C@H]1CN(c2ccc3nc(-c4cncc(Cl)c4)cc(=O)n3c2)CCN1 [Compound 95, 2-(5-chloropyridin-3-yl)-7-[(3S)-3-methylpiperazin-1-yl]-4H-pyrido[1,2-a]pyrimidin-4-one]	1 to 3	** (an EC1.5× between >1 μM and ≤3 μM is indicated by two stars (**))	**** (a fold increase between >1.5 and ≤1.65 is indicated by four stars (****))	227 to 232
COc1ncc(-c2cc(=O)n3cc(N4CCNCC4)ccc3n2)cc1Cl [Compound 96, 2-(5-chloro-6-methoxypyridin-3-yl)-7-(piperazin-1-yl)-4H-pyrido[1,2-a]pyrimidin-4-one]	0.3 to 1	*** (an EC1.5× between >0.3 μM and ≤1 μM is indicated by three stars (***))	**** (a fold increase between >1.5 and ≤1.65 is indicated by four stars (****))	201 to 209
O=c1cc(-c2ccc3cc[nH]c3c2)nc2ccc(N3CCNCC3)cn12 [Compound 97, 2-(1H-indol-6-yl)-7-(piperazin-1-yl)-4H-pyrido[1,2-a]pyrimidin-4-one]	1 to 3		** (a fold increase between >1.2 and ≤1.35 is indicated by two stars (**))	202 to 206
O=c1cc(-c2ccc(O)c(OC(F)F)c2)nc2ccc(N3CCNCC3)cn12 [Compound 100, 2-[3-(difluoromethoxy)-4-hydroxyphenyl]-7-(piperazin-1-yl)-4H-pyrido[1,2-a]pyrimidin-4-one]	0.3 to 1	*** (an EC1.5× between >0.3 μM and ≤1 μM is indicated by three stars (***))	***** (a fold increase >1.65 is indicated by five stars (*****))	233 to 237
COc1ccc(-c2cc(=O)n3cc(N4CCN[C@@H](C)C4)ccc3n2)cc1OC(F)F [Compound 101, 2-[3-(difluoromethoxy)-4-methoxyphenyl]-7-[(3S)-3-methylpiperazin-1-yl]-4H-pyrido[1,2-a]pyrimidin-4-one]	0.3 to 1		*** (a fold increase between >1.35 and ≤1.5 is indicated by three stars (***))	167 to 169
C[C@H]1CN(c2ccc3nc(-c4ccc(O)c(OC(F)F)c4)cc(=O)n3c2)CCN1 [Compound 102, 2-[3-(difluoromethoxy)-4-hydroxyphenyl]-7-[(3S)-3-methylpiperazin-1-yl]-4H-pyrido[1,2-a]pyrimidin-4-one]	0.3 to 1	*** (an EC1.5× between >0.3 μM and ≤1 μM is indicated by three stars (***))	***** (a fold increase >1.65 is indicated by five stars (*****))	192 to 197
COc1ccc(-c2cc(=O)n3cc(N4CCNCC4)ccc3c2)cc1F [Compound 103, 2-(3-fluoro-4-methoxyphenyl)-7-(piperazin-1-yl)-4H-quinolizin-4-one]	0.3 to 1		*** (a fold increase between >1.35 and ≤1.5 is indicated by three stars (***))	200 to 202
COc1ccc(-c2cc(=O)n3cc(N4CCN[C@@H](C)C4)ccc3c2)cc1F [Compound 104, 2-(3-fluoro-4-methoxyphenyl)-7-[(3S)-3-methylpiperazin-1-yl]-4H-quinolizin-4-one]	0.3 to 1		*** (a fold increase between >1.35 and ≤1.5 is indicated by three stars (***))	188 to 192
C[C@H]1CN(c2ccc3nc(-c4cc(F)cc(F)c4)cc(=O)n3c2)CCN1 [Compound 105, 2-(3,5-difluorophenyl)-7-[(3S)-3-methylpiperazin-1-yl]-4H-pyrido[1,2-a]pyrimidin-4-one]	0.1 to 0.3	*** (an EC1.5× between >0.3 μM and ≤1 μM is indicated by three stars (***))	**** (a fold increase between >1.5 and ≤1.65 is indicated by four stars (****))	189 to 194

Reference: patent publication US11753407B2, “Compounds for treating spinal muscular atrophy” (PTC Therapeutics, Inc., priority 2012, dated 2023)
